Experimental data published in publication PMC2346451 (PLoS ONE, 2008).

Experiments:
rat TRPA1 (rTRPA1) = rat TRPA1 (rTRPA1) (Rattus norvegicus, UniProt Q6RI86); assay: Whole-cell patch clamp of rat TRPA1 expressed in HEK-293T cells; assay type: cell-based
Method: (§1) Transformed human embryonic kidney-293 (HEK-293T) cells were grown in Dulbecco's modified Eagle's medium (DMEM)+F-12 supplemented with 10% fetal calf serum, and 1% penicillin/streptomycin in 5% CO2 at 37°C. Cells grown to 90% confluence in 35 mm Petri dishes were transiently transfected with plasmid DNA encoding a TRP channel construct (1 µg). Rat TRPV1 (rTRPV1) was cloned into an enhanced green fluorescent protein-containing vector (pTracer-CMV2; Invitrogen, Carlsbad, CA). Chicken TRPV1 (cTRPV1), the chicken rat TRPV1 chimera (crcTRPV1), rat TRPV2 (rTRPV2), mouse TRPV3 (mTRPV3), mouse TRPV4 (mTRPV4), rat TRPM8 (rTRPM8), and rat TRPA1 (rTRPA1), were cloned into pcDNA3 and co-transfected with enhanced green fluorescent protein (0.1 µg) to follow expression. The cTRPV1 and crcTRPV1 clones were kindly provided by Dr. David Julius. Recordings were carried out 24–36 hours after transfection. Cells were split via trypsin EDTA, plated on glass coverslips at 5–10% confluence, and used 2–3 hours later.
Electrophysiological experiments were performed using the whole-cell patch-clamp technique at room temperature. Modified Ringer's solution with low chloride and nominal calcium contained (in mM): 130 sodium hydroxide, 5 potassium chloride, 1 magnesium chloride, 10 sodium 4-(2-hydroxyethyl)-1-piperazineethanesulfonic acid, 10 2-(N-morpholino)ethanesulfonic acid, and 20 glucose (pH 7.4; 310 milli-osmolar). […] 2 mM calcium chloride was included in the external solution where noted. To activate TRPV1, the modified Ringer's solution was made at pH 5 (low pH solution) and the chloride concentration was kept to a minimum to prevent contamination of the TRPV1 currents with acid-activated chloride currents. For recordings from heterologously expressing cells, the internal pipette solution contained (in mM): 125 cesium-Methanesulfonate, 10 cesium (1.2-bis(o-aminophenoxy)ethane-N,N,N',N'-tetraacetic acid, 8 sodium chloride, 4 magnesium adenosine triphosphate, and 10 HEPES (pH 7.2; 290 mOSM; nominal free calcium concentrations). For TRPA1 and dorsal root ganglion recordings, the internal pipette solution contained (in mM): 110 cesium-Methanesulfonate, 0.5 cesium4BAPTA, 8 sodium chloride, 0.2 calcium chloride, 4 magnesium-ATP, 4 sodium-GTP, and 10 4-(2-hydroxyethyl)-1-piperazineethanesulfonic acid (pH 7.2; 290 mOSM; 100 nM free calcium internal). MaxChelator was used to calculate the free calcium concentration (http://www.stanford.edu/cpatton/maxc.html).
Recordings were obtained using an Axopatch 200B amplifier, Digidata 1322A analog-to-digital converter, and pClamp 8.01 software (Molecular Devices, Union City, CA). Data were low-pass filtered at 2 kHz and digitized at 5 kHz. Borosilicate glass pipettes (World Precision Instruments, Sarasota, FL) were typically 3 MΩ pipette resistance after fire polishing. Cell capacitance was measured for each cell, and access resistance compensated to ∼80%. Recordings were begun ∼5 minutes after initial rupture to ensure initial steady state conditions. Current-voltage (I-V) relations were obtained using a ramp protocol. Voltage ramps (400 ms) from −100 to +40 or +100 mV were applied every 1–2 seconds and the holding potential was either −70 mV or 0 mV (see Figure Legends). A 40 ms step was added at the beginning and end of the ramp (i.e. at −100 mV, +40 mV or +100 mV). Liquid junction potentials were not corrected.
The dose response curves were fit with the Hill equation, where [drawing 8] and [A] is the concentration of agonist or blocker, N is the Hill coefficient, and KD is the [A] for Imeasured/Imax = 0.5. The term apparent dissociation constant is used in place of the half concentration of excitation and inhibition. […] Averaged data are presented as mean±standard error (S.E.) throughout. Statistical analysis included paired and unpaired Student's t-test comparisons of the data; p values are reported in the text.

[1] = test system: dorsal root ganglion neurons; assay: Fura-2 calcium imaging of dorsal root ganglion neurons; assay type: cell-based, rat; conditions: 1 mM citral; freshly isolated neurons
Excerpt: Dorsal root ganglion neurons from all spinal levels were removed from postnatal day 12 to 20 Sprague Dawley rats and the nerve roots trimmed. Calcium- and magnesium-free (CMF) Hank's solution contained (in mM): 136.9 sodium chloride, 5.4 potassium chloride, 0.34 dibasic sodium orthophosphate, 0.44 monopotassium phosphate, 5.6 glucose, 5 4-(2-hydroxyethyl)-1-piperazineethanesulfonic acid, 0.005% phenol red, pH 7.4. CMF Hank's was used throughout the isolation and enzymatic treatments. The isolated ganglia were treated for 20 minutes at 37°C with 20 U/ml of papain (Worthington Biochemical, Lakewood, NJ) and 5 mM cysteine. The ganglia were then transferred to CMF Hank's with 3 mg/ml collagenase (type I; Worthington) and 4 mg/ml dispase (neutral type II; Roche Applied Science, Indianapolis, IN) for 20 minutes at 37°C. […]
Dorsal root ganglion neurons were loaded with 5 µM fura-2 AM and 0.02% pluronic acid in media at 37°C for 60 minutes. […] The MetaFluor imaging system (Universal Imaging Corporation) was used to record fluorescence at 340 and 380 nm excitation wavelengths. Background fluorescence, measured as the ratio 340/380 in a “cell-free” zone during the experiment, was subtracted from the data. […]

Chicken TRPV1 (cTRPV1) = assay: Whole-cell patch clamp of chicken TRPV1 expressed in HEK-293T cells; assay type: cell-based
Method: as §1
Electrophysiological experiments were performed using the whole-cell patch-clamp technique at room temperature. […]
Recordings were obtained using an Axopatch 200B amplifier, Digidata 1322A analog-to-digital converter, and pClamp 8.01 software (Molecular Devices, Union City, CA). […] Cell capacitance was measured for each cell, and access resistance compensated to ∼80%. […]

Chain of rat TRPA1 (rTRPA1) (Q6RI86 whole entry): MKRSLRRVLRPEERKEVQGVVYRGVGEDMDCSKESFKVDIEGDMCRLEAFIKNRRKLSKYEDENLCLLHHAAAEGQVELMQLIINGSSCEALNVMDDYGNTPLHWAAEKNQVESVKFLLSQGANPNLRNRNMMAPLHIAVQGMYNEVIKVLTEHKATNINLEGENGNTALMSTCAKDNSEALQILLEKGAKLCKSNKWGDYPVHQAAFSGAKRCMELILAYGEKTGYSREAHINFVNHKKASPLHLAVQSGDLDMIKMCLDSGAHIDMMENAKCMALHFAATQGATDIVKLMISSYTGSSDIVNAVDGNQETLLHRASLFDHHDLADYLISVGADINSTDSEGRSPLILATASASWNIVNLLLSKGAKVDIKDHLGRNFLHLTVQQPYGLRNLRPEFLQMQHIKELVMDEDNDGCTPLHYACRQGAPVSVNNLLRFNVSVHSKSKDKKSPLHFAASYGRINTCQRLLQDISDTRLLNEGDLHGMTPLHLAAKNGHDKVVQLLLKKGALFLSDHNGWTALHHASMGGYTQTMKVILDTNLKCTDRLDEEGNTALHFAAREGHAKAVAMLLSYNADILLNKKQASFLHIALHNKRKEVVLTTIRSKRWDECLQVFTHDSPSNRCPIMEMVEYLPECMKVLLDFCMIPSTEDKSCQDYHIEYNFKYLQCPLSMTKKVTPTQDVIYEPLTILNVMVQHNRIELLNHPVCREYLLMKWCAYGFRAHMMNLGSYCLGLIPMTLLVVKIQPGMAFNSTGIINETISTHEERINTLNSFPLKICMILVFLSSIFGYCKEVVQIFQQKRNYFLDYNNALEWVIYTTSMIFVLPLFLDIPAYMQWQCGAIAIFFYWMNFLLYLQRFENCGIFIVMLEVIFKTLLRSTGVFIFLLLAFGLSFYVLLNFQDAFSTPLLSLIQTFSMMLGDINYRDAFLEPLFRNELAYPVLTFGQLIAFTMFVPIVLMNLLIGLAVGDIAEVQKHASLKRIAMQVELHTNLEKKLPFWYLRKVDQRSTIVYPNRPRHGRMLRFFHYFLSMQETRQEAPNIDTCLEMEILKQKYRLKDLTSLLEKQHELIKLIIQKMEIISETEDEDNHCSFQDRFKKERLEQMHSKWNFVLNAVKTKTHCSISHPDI

In the case of `CC(C)=CCCC(C)=CC=O` [citral, 3,7-dimethyl-2,6-octadienal], the “Reversibility of citral inhibition of agonist-evoked current” value (rat TRPA1 (rTRPA1); allyl isothiocyanate-evoked) is reported as “rapidly reversed”, the “Effect of citral addition on agonist-induced current” value (rat TRPA1 (rTRPA1); allyl isothiocyanate-induced, n = 10) is reported as “not increased” and the “TRPA1 current activation by allyl isothiocyanate recovered after citral washout” value (rat TRPA1 (rTRPA1); at 30s, n = 5) is reported as 60±16%. The Activation threshold (rat TRPA1 (rTRPA1); citral activation, bell-shaped dose response, 2 mM external calcium) was “threshold ∼200 µM”, the “Hill coefficient (inhibition)” value (rat TRPA1 (rTRPA1); citral block of allyl isothiocyanate-evoked current) was 1.0 and the “Agonist efficacy IAITC (300 µM)/Icitral (300 µM)” value (rat TRPA1 (rTRPA1); fold larger, −100 mV, n = 27 and 9) was “IAITC (300 µM)/Icitral (300 µM) 1.5 fold larger (n = 27 and 9; −100 mV)”. The Kd (rat TRPA1 (rTRPA1); read-out: Inhibition KD, app) was 254 µM, the “Increase of ITRPA1 above baseline” value (rat TRPA1 (rTRPA1); −100 mV) was 3.1±0.8 fold and the “Neurons with increased internal calcium concentration among capsaicin-responsive neurons” value [1] was 12 of 35. The “Activation of cTRPV1 current” value (Chicken TRPV1 (cTRPV1); n = 6) was “did not activate” and the “Effect on cTRPV1 currents activated by pH 5 solution” value (Chicken TRPV1 (cTRPV1); pH 5) was “reversibly inhibited”.
